Test results taken from patent US5478933A, “Benzodiazepine derivatives and their use as antagonists of cholecystokinin and/or gastrin receptors” (Merck Sharpe & Dohme Ltd., priority 1994, dated 1995).

Columns and labels:
CCK receptor (pancreas) = target: T1, CCK receptor (pancreas) (Rattus norvegicus, UniProt P30551); experiment: CCK Receptor Binding (Pancreas), inhibition of 125I-CCK-8 binding; set-up: species or system rat (male Sprague-Dawley); conditions: rat pancreas membranes; 50 pM 125I-CCK-8; pH 6.5, 25° C., 2 hours
T1 construct: The whole pancreas was dissected free of fat tissue and was homogenized; from tissue; host or cells: whole pancreas of male Sprague-Dawley rats, membrane homogenate
T1 sequence (P30551 1-444): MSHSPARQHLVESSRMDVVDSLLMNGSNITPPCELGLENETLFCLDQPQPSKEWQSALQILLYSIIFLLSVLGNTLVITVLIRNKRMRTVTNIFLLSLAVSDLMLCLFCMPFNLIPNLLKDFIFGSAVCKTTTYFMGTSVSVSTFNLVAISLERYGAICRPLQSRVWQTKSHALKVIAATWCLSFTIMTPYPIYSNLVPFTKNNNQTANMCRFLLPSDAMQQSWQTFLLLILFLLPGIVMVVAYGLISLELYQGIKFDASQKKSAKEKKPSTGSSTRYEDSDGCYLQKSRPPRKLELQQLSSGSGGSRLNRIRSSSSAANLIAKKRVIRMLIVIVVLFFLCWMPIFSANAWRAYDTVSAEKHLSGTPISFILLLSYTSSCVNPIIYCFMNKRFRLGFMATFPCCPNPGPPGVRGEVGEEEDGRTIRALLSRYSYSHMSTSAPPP
Protocol: CCK-8 sulphated was radiolabelled with ^125 I-Bolton Hunter reagent (2000 Ci/mmole). Receptor binding was performed according to Chang and Lotti (Proc. Natl. Acad. Sci. 83, 4923-4926, 1986) with minor modifications.
Male Sprague-Dawley rats (150-200 g) were sacrificed by decapitation. The whole pancreas was dissected free of fat tissue and was homogenized in 25 volumes of ice-cold 10 mM N-2-hydroxyethyl-piperazine-N'-2-ethane sulphonic acid (HEPES) buffer with 0.1% soya bean trypsin inhibitor (pH 7.4 at 25° C.) with a Kinematica Polytron. The homogenates were centrifuged at 47,800 g for 10 min. Pellets were resuspended in 10 volumes of binding assay buffer (20mM (HEPES)), 1 mM ethylene glycol-bis-(β-aminoethylether-N,N'-tetraacetic acid) (EGTA), 5 mM MgCl2, 150 mM NaCl, bacitracin 0.25 mg/ml, soya bean trypsin inhibitor 0.1 mg/ml, and bovine serum albumin 2 mg/ml pH 6.5 at 25° C.) using a Teflon (trademark) homogenizer, 15 strokes at 500 rpm. The homogenate was further diluted in binding assay buffer to give a final concentration of 0.5 mg original wet weight/1 ml buffer. […] The radioactivity on the filters was counted with a LKB gamma counter. […]

CCK receptor (brain) = target: T2, CCK receptor (brain) (Cavia porcellus, UniProt H0VZC5); experiment: CCK Receptor Binding (Brain), inhibition of 125I-CCK-8 binding; set-up: species or system guinea pig (male Hartley); conditions: guinea pig cortex membranes; 50 pM 125I-CCK-8; pH 6.5, 25° C., 2 hours
T2 construct: the cortex was removed and homogenized in 25 mL ice-cold 0.32M sucrose; from tissue; host or cells: cortex of male Hartley guinea pigs, P2 membrane pellet
T2 sequence (H0VZC5 entry or part of it): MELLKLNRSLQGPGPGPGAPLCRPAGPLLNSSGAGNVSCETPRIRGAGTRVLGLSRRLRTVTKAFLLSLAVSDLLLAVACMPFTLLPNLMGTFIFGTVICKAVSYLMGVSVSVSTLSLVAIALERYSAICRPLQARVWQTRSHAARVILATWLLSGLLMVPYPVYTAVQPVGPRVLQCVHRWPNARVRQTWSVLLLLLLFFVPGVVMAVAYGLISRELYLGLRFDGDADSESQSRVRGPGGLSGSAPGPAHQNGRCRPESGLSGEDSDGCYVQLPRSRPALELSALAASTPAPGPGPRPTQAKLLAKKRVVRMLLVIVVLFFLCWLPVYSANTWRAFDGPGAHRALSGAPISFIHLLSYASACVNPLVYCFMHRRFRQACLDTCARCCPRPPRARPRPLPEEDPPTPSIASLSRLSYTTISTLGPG
Protocol: CCK-8 sulphated was radiolabelled and the binding was performed according to the description for the pancreas method with minor modifications.
Male Hartley guinea pigs (300-500 g) were sacrificed by decapitation and the cortex was removed and homogenized in 25 mL ice-cold 0.32M sucrose. The homogenates were centrifuged at 1000 g for 10 minutes and the resulting supernatant was recentrifuged at 20,000 g for 20 minutes. The P2 pellet was resuspended in binding assay buffer (20 mM HEPES, 5 mM MgCl2, 0.25 mg/ml bacitracin, 1 mM EGTA pH 6.5 at 25° C.), using a Teflon (trademark) homogenizer (5 strokes at 500 rpm) to give a final concentration of 10 mg original wet weight/1.2 ml buffer. For the binding assay, 50 μl of buffer (for total binding) or unlabelled CCK-8 sulphated to give a final concentration of 1 μM (for nonspecific binding) or the compounds of Formula I (for determination of inhibition of ^125 I-CCK-8 binding) and 50 μl of 500 pM ^125 I-CCK-8 (i.e. final concentration of 50 pM) were added to 400 μl of the membrane suspensions in microfuge tubes. All assays were run in duplicate. The reaction mixtures were incubated at 25° C. for 2 hours and then the reaction was terminated by rapid filtration (Brandell 24 well cell harvester) on Whatman GF/C filters with 3×5 ml washes of cold 100 mM NaCl. The radioactivity on the filters was counted with a LKB gamma counter. […]

## CC(C)CN1C(=O)C(NC(=O)Nc2cccc(-c3nn[nH]n3)c2)N=C(c2ccc(=O)[nH]c2)c2ccccc21 (racemic) [Example 1, N-[3(R,S)-2,3-Dihydro-1-(2-methylpropyl)-2-oxo-5-(6-oxo-1,6-dihydropyridin-3-yl)-1H-1,4-benzodiazepin-3-yl]-N'-[3-(tetrazol-5-yl)phenyl]urea]
CCK receptor (pancreas)
  IC50: 2680 nM
CCK receptor (brain)
  IC50: 19.2 nM

## CC(C)CN1C(=O)C(NC(=O)Nc2cccc(-c3nn[nH]n3)c2)N=C(c2cc[nH]c(=O)c2)c2ccccc21 (racemic) [Example 2, N-[3(R,S)-2,3-Dihydro-1-(2-methylpropyl)-2-oxo-5-(2-oxo-1,2-dihydropyridin-4-yl)-1H-1,4-benzodiazepin-3-yl]-N'-[3-(tetrazol-5-yl)phenyl]urea]
CCK receptor (pancreas)
  IC50: 3380 nM
CCK receptor (brain)
  IC50: 23 nM
